Series [1] deals with Human immunodeficiency virus type 1 reverse transcriptase (Human immunodeficiency virus 1, UniProt Q72547). In words: Inhibitory constant against HIV-1 reverse transcriptase.
The nature of series [2]: Half-life determined in fetal calf serum. It is filed as ADME, Bos taurus. The settings on record: cattle.

This is an account of results in ChEMBL document CHEMBL1143584, “Synthesis of 2',3'-dideoxynucleoside 5'-alpha-P-borano-beta,gamma-(difluoromethylene)triphosphates and their inhibition of HIV-1 reverse transcriptase” (J Med Chem, 2005).

Structures are written as SMILES.

In the case of `Cc1cn([C@H]2C[C@H](F)[C@@H](COP(=O)(O)OP(=O)(O)OP(=O)(O)O)O2)c(=O)[nH]c1=O`, the Ki in series [1] is 71 nM.

In the case of `O=c1ccn([C@H]2CC[C@@H](COP(=O)(O)OP(=O)(O)OP(=O)(O)O)O2)c(=O)[nH]1`, the affinity in series [1], expressed as Ki, was 545 nM. The same compound gave a half-life in series [2] of 1 h.

`Nc1nc(=O)n([C@H]2CS[C@@H](COP(=O)(O)OP(=O)(O)OP(=O)(O)O)O2)cc1F` showed a Ki in series [1] of 501 nM.

Consider `NC1=NCc2c(ncn2[C@H]2CC[C@@H](COP(=O)(O)OP(=O)(O)OP(=O)(O)O)O2)C1=O`, for which the Ki in series [1] is 25 nM.

For `BP(=O)(OC[C@@H]1C=C[C@H](n2cnc3c(O)nc(N)nc32)C1)OP(=O)(O)C(F)(F)P(=O)(O)O` (stereo not given in full), the affinity in series [1], expressed as Ki, was 34 nM. This Ki and that of the compound before are within 1.5-fold of each other.

`BP(=O)(OC[C@@H]1CC[C@H](n2ccc(N)nc2=O)O1)OP(=O)(O)C(F)(F)P(=O)(O)O` (stereo not given in full) returned a Ki in series [1] of 23 nM. The compound also yielded a half-life in series [2] of more than 48 h.

In series [1], `BP(=O)(OC[C@H]1O[C@@H](n2cc(C)c(=O)[nH]c2=O)C[C@@H]1F)OP(=O)(O)C(F)(F)P(=O)(O)O` (stereo not given in full) displayed an inhibition constant (Ki) of 46 nM.

In series [1], `BP(=O)(OC[C@@H]1CC[C@H](n2ccc(=O)[nH]c2=O)O1)OP(=O)(O)C(F)(F)P(=O)(O)O` (stereo not given in full) showed a Ki of 438 nM. Besides, in series [2], the half-life was more than 48 h.

`BP(=O)(OC[C@@H]1C=C[C@H](n2cc(C)c(=O)[nH]c2=O)O1)OP(=O)(O)C(F)(F)P(=O)(O)O` (stereo not given in full): affinity in series [1] was put at a Ki of 45 nM.

For `BP(=O)(OC[C@@H]1CC[C@H](n2cnc3c(N)ncnc32)O1)OP(=O)(O)C(F)(F)P(=O)(O)O` (stereo not given in full), in series [1], the Ki came to 47 nM.

In the case of `BP(=O)(OC[C@H]1O[C@@H](n2cc(C)c(=O)[nH]c2=O)C[C@@H]1N=[N+]=[N-])OP(=O)(O)C(F)(F)P(=O)(O)O` (stereo not given in full), the affinity in series [1] corresponds to a Ki of 94 nM. In series [2], the half-life is more than 48 h.

`BP(=O)(OC[C@H]1O[C@@H](n2cc(F)c(N)nc2=O)CS1)OP(=O)(O)C(F)(F)P(=O)(O)O` (stereo not given in full) yielded a Ki in series [1] of 1770 nM. In other words, the single-digit micromolar range.

For `Nc1nc(O)c2ncn([C@H]3C=CC(COP(=O)(O)OP(=O)(O)OP(=O)(O)O)C3)c2n1` (stereo not given in full), in series [1], the Ki is 37 nM. Compared with the last compound, the Ki is about 48-fold lower.

The compound `BP(=O)(OC[C@H]1O[C@@H](n2ccc(N)nc2=O)CS1)OP(=O)(O)C(F)(F)P(=O)(O)O` (mixture of isomers) returned a Ki in series [1] of 314 nM. The half-life in series [2] was more than 48 h.

On to `BP(=O)(OC[C@@H]1CC[C@H](n2cc(C)c(=O)[nH]c2=O)O1)OP(=O)(O)C(F)(F)P(=O)(O)O` (mixture of isomers), for which, in series [1], affinity was put at a Ki of 236 nM.

`BP(=O)(OC[C@@H]1CC[C@H](n2cnc3c(O)nc(N)cc32)O1)OP(=O)(O)C(F)(F)P(=O)(O)O` (single isomer, unassigned; diastereomer I) registered a Ki in series [1] of 71 nM.

With `Nc1ncnc2c1ncn2[C@H]1CC[C@@H](COP(=O)(O)OP(=O)(O)OP(=O)(O)O)O1` [DDA-TRIPHOSPHATE], the affinity in series [1] corresponds to a Ki of 20 nM.

Consider `Nc1ccn([C@H]2CC[C@@H](COP(=O)(O)OP(=O)(O)OP(=O)(O)O)O2)c(=O)n1` [DDCTP], for which the half-life in series [2] is 0.8 h.

Consider `Cc1cn([C@H]2C[C@H](O)[C@@H](COP(=O)(O)OP(=O)(O)OP(=O)(O)O)O2)c(=O)[nH]c1=O` [DEOXYTHYMIDINE_TRIPHOSPHATE], for which the affinity in series [1], expressed as Ki, was 61 nM. This counts as double-digit nanomolar.

Turning to `Nc1ccn([C@@H]2CS[C@H](COP(=O)(O)OP(=O)(O)OP(=O)(O)O)O2)c(=O)n1` [LAMIVUDINE TRIPHOSPHATE], the Ki in series [1] is 188 nM. This compound showed a half-life in series [2] of 3 h.

For the compound `Cc1cn([C@H]2C=C[C@@H](COP(=O)(O)OP(=O)(O)OP(=O)(O)O)O2)c(=O)[nH]c1=O` [STAVUDINE TRIPHOSPHATE], the inhibition constant Ki in series [1] was found to be 56 nM.

Consider `Nc1ccn([C@H]2CC[C@@H](CO)O2)c(=O)n1` [ZALCITABINE], for which the inhibition constant Ki in series [1] turned out to be 51 nM.

As for `Cc1cn([C@H]2C[C@H](N=[N+]=[N-])[C@@H](CO[P@](=O)(O)O[P@](=O)(O)OP(=O)(O)O)O2)c(=O)[nH]c1=O` [ZIDOVUDINE TRIPHOSPHATE], the affinity in series [1] corresponds to a Ki of 91 nM. In series [2], the half-life was 2 h.
